# Assays:
# [1] = biological target: T1, Recombinant full-length HIV-1 Reverse Transcriptase (HIVrt) (Human immunodeficiency virus type 1 group M subtype B, UniProt P04585); assay: Inhibition of HIV reverse transcriptase (RdDp assay); format: biochemical; conditions: 1 nM HIVrt, 30° C., 40 min, 3H-TTP incorporation; Table 3 triphosphates
# T1 construct: Recombinant full-length HIV-1 Reverse Transcriptase (HIVrt); purchased Abcam ab63979
# Description: Recombinant full-length HIV-1 Reverse Transcriptase (HIVrt) was purchased from Abcam, catalog #ab63979. The last 385 nucleotide region of the HCV anti-genome complementary to the 5′ untranslated region (c5′UTR) was synthesized using T7 RNA polymerase Megascript kit from Ambion (Cat #AM1333). A DNA oligo served as an internal initiation primer and was purchased from IDT. Unless otherwise specified, reaction samples consisted of 20 nM c5′UTR RNA, 100 nM DNA primer, and 1 nM HIVrt, mixed together in a buffer containing 50 mM Tris pH 7.5, 100 mM KCl, 4 mM dithiothreitol (DTT), and 12.5 mM MgCl2. Reactions were initiated at 30° C. by adding 0.1 μM adenosine triphosphate (dATP), 0.1 μM cytosine triphosphate (dCTP), 1 μM guanosine triphosphate (dGTP), and 0.32 μM ^3H-thymidine triphosphate (^3H-TTP), in a final volume of 50 μL. After 40-mins incubation, the reaction was terminated by adding 60 μL of chilled 20% (w/v) trichloroacetic acid with 500 μM ATP to precipitate nucleic acids. After incubation at 4° C. for 1 h, the sample underwent filtration on a multiscreen BV […] 96-well plate (Millipore). 40 μL Microscint-20 (Perkin Elmer) was added to the well and the counts in the sample were determined by a Trilux Microbeta microplate scintillation reader (Wallac).
# All data were analyzed with GraphPad Prism. The compound concentration at which the enzyme-catalyzed rate was reduced by 50% (IC50) was calculated by fitting the data to the equation Y=% Min+(% Max−% Min)/(1+X/IC50), where Y corresponds to the percent relative enzyme activity, % Min is the residual relative activity at saturating compound concentration, % Max is the relative maximum enzyme activity, and X corresponds to the compound concentration. The Ki was calculated using the Cheng-Prusoff equation assuming competitive inhibition relative to natural dNTP incorporation: K=IC50/(1+[dNTP]/Km), where [dNTP] is the concentration of natural dNTP and Km is the apparent Km for dNTP. The standard HIVrt RNA-dependent DNA polymerization (RdDp) assay was used to determine the IC50 values.
# [2] = biological target: T2, Recombinant full-length HBV polymerase (HBVpol) (Hepatitis B virus genotype D subtype ayw, UniProt P03156); assay: Inhibition of HBV polymerase (RdDp assay); format: biochemical; conditions: HBVpol expressed in SF9 cells, 30° C., 120 min, 3H-TTP incorporation; Table 3 triphosphates; read-out: HBVrt IC50
# T2 construct: Recombinant full-length HBV polymerase(HBVpol) was expressed in SF9 cells; made in house; host or cells: SF9 insect cells
# T2 sequence (P03156 whole entry): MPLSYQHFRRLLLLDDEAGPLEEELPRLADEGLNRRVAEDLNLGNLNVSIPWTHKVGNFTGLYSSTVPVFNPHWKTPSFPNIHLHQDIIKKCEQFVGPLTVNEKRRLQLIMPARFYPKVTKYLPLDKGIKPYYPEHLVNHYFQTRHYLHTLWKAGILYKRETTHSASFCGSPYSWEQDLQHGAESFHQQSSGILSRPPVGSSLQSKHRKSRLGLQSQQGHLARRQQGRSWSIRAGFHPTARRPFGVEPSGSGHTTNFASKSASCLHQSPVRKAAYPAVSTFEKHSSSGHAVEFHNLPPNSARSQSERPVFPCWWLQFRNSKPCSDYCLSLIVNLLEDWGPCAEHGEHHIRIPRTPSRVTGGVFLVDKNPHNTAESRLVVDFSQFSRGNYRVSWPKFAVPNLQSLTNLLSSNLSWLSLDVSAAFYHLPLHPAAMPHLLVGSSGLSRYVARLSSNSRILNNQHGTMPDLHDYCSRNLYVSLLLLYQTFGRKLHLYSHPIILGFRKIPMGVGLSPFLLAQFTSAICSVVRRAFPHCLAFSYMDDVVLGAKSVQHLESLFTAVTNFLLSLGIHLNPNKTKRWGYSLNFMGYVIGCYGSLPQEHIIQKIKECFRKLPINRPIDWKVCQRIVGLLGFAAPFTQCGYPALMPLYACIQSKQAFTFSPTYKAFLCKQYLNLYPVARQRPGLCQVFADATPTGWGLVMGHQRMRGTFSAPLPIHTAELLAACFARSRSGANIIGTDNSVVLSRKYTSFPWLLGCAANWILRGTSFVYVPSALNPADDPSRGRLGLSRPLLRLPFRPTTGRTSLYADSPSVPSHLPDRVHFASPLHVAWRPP
SMILES,IC50 [1],IC50 [2]
"C=C1[C@H](COP(=O)(O)OP(=O)(O)OP(=O)(O)O)[C@@H](O)C[C@@H]1n1ccc2c(N)ncnc21 [Example 22, ((1R,3S,5S)-3-(4-Amino-7H-pyrrolo[2,3-d]pyrimidin-7-yl)-5-hydroxy-2-methylenecyclopentyl)methyl Tetrahydrogen Triphosphate]",158 nM,–
"C=C1[C@H](COP(=O)(O)OP(=O)(O)OP(=O)(O)O)[C@@H](O)C[C@@H]1n1ccc2c(=O)[nH]c(N)nc21 [Example 23, ((1R,3S,5S)-3-(2-Amino-4-oxo-3,4-dihydro-7H-pyrrolo[2,3-d]pyrimidin-7-yl)-5-hydroxy-2-methylenecyclopentyl)methyl Tetrahydrogen Triphosphate]",383 nM,8.8 nM
"C=C1[C@@H](n2cc(C)c(=O)[nH]c2=O)C[C@H](O)[C@@]1(F)COP(=O)(O)OP(=O)(O)OP(=O)(O)O [Example 24, ((1S,3S,5S)-1-Fluoro-5-hydroxy-3-(5-methyl-2,4-dioxo-3,4-dihydropyrimidin-1(2H)-yl)-2-methylenecyclopentyl)methyl Tetrahydrogen Triphosphate]",267 nM,2.9 nM
"C=C1[C@@H](n2cnc3c(=O)[nH]c(N)nc32)C[C@H](O)[C@@]1(F)COP(=O)(O)OP(=O)(O)OP(=O)(O)O [Example 25, ((1S,3S,5S)-3-(2-Amino-6-oxo-1,6-dihydro-9H-purin-9-yl)-1-fluoro-5-hydroxy-2-methylenecyclopentyl)methyl Tetrahydrogen Triphosphate]",251 nM,9.9 nM
"C=C1[C@@H](n2cnc3c(N)ncnc32)C[C@H](O)[C@@]1(F)COP(=O)(O)OP(=O)(O)OP(=O)(O)O [Example 26, ((1S,3S,5S)-3-(6-Amino-9H-purin-9-yl)-1-fluoro-5-hydroxy-2-methylenecyclopentyl)methyl Tetrahydrogen Triphosphate]",81 nM,8.2 nM
"C=C1[C@@H](n2ccc3c(N)ncnc32)C[C@H](O)[C@@]1(F)COP(=O)(O)OP(=O)(O)OP(=O)(O)O [Example 27, ((1S,3S,5S)-3-(4-Amino-7H-pyrrolo[2,3-d]pyrimidin-7-yl)-1-fluoro-5-hydroxy-2-methylenecyclopentyl)methyl Tetrahydrogen Triphosphate]",65.9 nM,7.2 nM
"C=C1[C@@H](n2cnc3c(=O)[nH]c(N)nc32)C[C@H](O)[C@@]1(CF)COP(=O)(O)OP(=O)(O)OP(=O)(O)O [Example 28, ((1S,3S,5S)-3-(2-Amino-6-oxo-1,6-dihydro-9H-purin-9-yl)-1-(fluoromethyl)-5-hydroxy-2-methylenecyclopentyl)methyl Tetrahydrogen Triphosphate]",749 nM,–
"C=C1[C@@H](n2ccc(N)nc2=O)C[C@H](O)[C@@]1(CF)COP(=O)(O)OP(=O)(O)OP(=O)(O)O [Example 29, ((1S,3S,5S)-3-(4-Amino-2-oxopyrimidin-1(2H)-yl)-1-(fluoromethyl)-5-hydroxy-2-methylenecyclopentyl)methyl Tetrahydrogen Triphosphate]",326 nM,380 nM
"C=C1[C@@H](n2cc(C)c(=O)[nH]c2=O)C[C@H](O)[C@@]1(CF)COP(=O)(O)OP(=O)(O)OP(=O)(O)O [Example 30, ((1S,3S,5S)-1-(Fluoromethyl)-5-hydroxy-3-(5-methyl-2,4-dioxo-3,4-dihydropyrimidin-1(2H)-yl)-2-methylenecyclopentyl)methyl Tetrahydrogen Triphosphate]",1330 nM,–
"C=C1[C@@H](n2cnc3c(N)ncnc32)C[C@H](O)[C@@]1(CCl)COP(=O)(O)OP(=O)(O)OP(=O)(O)O [Example 31, ((1S,3S,5S)-3-(6-Amino-9H-purin-9-yl)-1-(chloromethyl)-5-hydroxy-2-methylenecyclopentyl)methyl Tetrahydrogen Triphosphate]",363 nM,–
"C=C1[C@@H](n2cc(C)c(=O)[nH]c2=O)C[C@H](O)[C@@]1(C#N)COP(=O)(O)OP(=O)(O)OP(=O)(O)O [Example 32, ((1S,3S,5S)-1-Cyano-5-hydroxy-3-(5-methyl-2,4-dioxo-3,4-dihydropyrimidin-1(2H)-yl)-2-methylenecyclopentyl)methyl Tetrahydrogen Triphosphate]",476 nM,> 1000 nM
"C=C1[C@@H](n2ccc(N)nc2=O)C[C@H](O)[C@@]1(C#N)COP(=O)(O)OP(=O)(O)OP(=O)(O)O [Example 33, ((1S,3S,5S)-3-(4-Amino-2-oxopyrimidin-1(2H)-yl)-1-cyano-5-hydroxy-2-methylenecyclopentyl)methyl Tetrahydrogen Triphosphate]",77.9 nM,220 nM
"C=C1[C@@H](n2cnc3c(N)ncnc32)C[C@H](O)[C@@]1(C#N)COP(=O)(O)OP(=O)(O)OP(=O)(O)O [Example 34, ((1S,3S,5S)-3-(6-Amino-9H-purin-9-yl)-1-cyano-5-hydroxy-2-methylenecyclopentyl)methyl Tetrahydrogen Triphosphate]",> 10000 nM,–
"C=C1[C@@H](n2cnc3c(=O)[nH]c(N)nc32)C[C@H](O)[C@@]1(C#N)COP(=O)(O)OP(=O)(O)OP(=O)(O)O [Example 35, ((1S,3S,5S)-3-(2-Amino-6-oxo-1,6-dihydro-9H-purin-9-yl)-1-cyano-5-hydroxy-2-methylenecyclopentyl)methyl Tetrahydrogen Triphosphate]",260 nM,–
C#C[C@]1(COP(=O)(O)OP(=O)(O)OP(=O)(O)O)C(=C)[C@@H](n2cnc3c(N)ncnc32)C[C@@H]1O [Example 36],33.1 nM,–
"C=C[C@]1(COP(=O)(O)OP(=O)(O)OP(=O)(O)O)C(=C)[C@@H](n2cnc3c(N)ncnc32)C[C@@H]1O [Example 37, ((1R,3S,5S)-3-(6-Amino-9H-purin-9-yl)-5-hydroxy-2-methylene-1-vinylcyclopentyl)methyl Tetrahydrogen Triphosphate]",> 10000 nM,–

# From patent US20220033406A1, “C[…] AS ANTI-VIRALS” (priority 2018, published 2022)
